Assay results: patent US9540337B2, “Gamma-glutamyl transpeptidase inhibitors and methods of use” (The Board of Regents of the University of Oklahoma, priority 2012, dated 2017)

Assays:
Human GGT1 (hGGT) [1] = biological target: T1, Human GGT1 (hGGT) (Homo sapiens, UniProt P19440); assay: L-GpNA Transpeptidation Assay with GlyGly as acceptor; assay type: biochemical; set-up: lacking the transmembrane domain; made in house; host or cells: Pichia pastoris; settings: Table 2
Experimental: Transpeptidation Reaction: The same assay buffer was used for both the hydrolysis reaction and the transpeptidation reaction. The transpeptidation reaction included 40 mM glycylglycine (glygly, Sigma, St. Louis, Mo.) as the acceptor. […] The concentration of L-GpNA was 3 mM for experiments in which the concentration of glygly was varied. To initiate the transpeptidation reaction, 4 mU GGT were added.
1. […] 3 and 4. […] 5 (25).
L-GpNA Transpeptidation Assay: The assay has been described previously. […] The concentration of L-GpNA was 3 mM for experiments in which the concentration of GlyGly was varied. To initiate the transpeptidation reaction, 4 mU GGT were added.

[2] = system: human GGT in NIH3T3^GGT cells; assay: Catabolism of extracellular GSH by NIH3T3 cells transfected with human GGT; assay type: cell-based; settings: Compound 6 100 μM, 20 μM GSH, one hour; 60 min
Experimental: (§1) Cell Lines: 786-0 cells (ATCC CRL-1932), a human renal adenocarcinoma cell line, were grown in Dulbecco's Modified Eagle's Medium (DMEM) supplemented with 10% fetal bovine serum (FBS) and penicillin/streptomycin (50 units/ml, 50 μg/ml). NIH3T3 cells (ATCC CRL 1658) which are GGT-negative and NIH3T3 cells expressing hGGT [described previously were grown in DMEM/F12 media supplemented with 5% FBS and 0.2 mg/ml G418.
(§2) Catabolism of Extracellular GSH: 786-O and NIH3T3 cells were plated in 96-well plates at a density of 5×10^3 cells/well. After 24 hours, the media was changed to 100 μl cysteine-free DMEM/F12 supplemented with either 20 μM GSH or 20 μM GSH and 100 μM compound 6. After one hour, 50 μl of media was removed and immediately acidified with 5 μl ice-cold 43.1% 5-sulfosalicylic acid. After 10 minutes on ice, the solution was neutralized with 15 μl of 1 M NaOH. The GSH concentration was determined by the method of Tietze.

hGGT = biological target: T2, hGGT (Homo sapiens, UniProt P19440); assay: L-Glutamate Release Assay (Hydrolysis of GSH); assay type: biochemical
T2 construct: lacking the transmembrane domain; made in house; host or cells: Pichia pastoris
Experimental: L-Glutamate Release Assay (Hydrolysis of GSH): This assay measures the production of glutamate from the hydrolysis of GSH by GGT enzyme and has been described in detail previously. The concentration of the substrate, GSH, was varied from 5 μM to 20 μM. The concentration of the inhibitors, OU749 and its analogs, were varied from 15.6 μM to 250 μM. The reaction was initiated with the addition of 10 mU hGGT. […] All compounds were also evaluated as inhibitors of glutamate dehydrogenase, the enzyme in the second half of the L-glutamate release assay. None of the compounds in this study inhibited glutamate dehydrogenase.

786-0 cells = assay: Cytotoxicity in dividing 786-O cells (MTT assay, 72 hours); assay type: cell-based, human
Experimental: as §1
(§3) Cytotoxicity Assays: 786-0 cells were plated at 10^3 cells/well in a 96-well plate in DMEM supplemented with 10% FBS and penicillin/streptomycin (50 units/ml, 50 μg/ml). After 24 hours, the media was changed to fresh media containing OU749 analogs. A 100 mM stock of OU749 and each of its analogs were made in DMSO then diluted in DMEM. Control wells were treated with equivalent concentrations of DMSO. Cell viability was determined 72 hours after the addition of the inhibitors by the MTT assay. For the toxicity of the OU749 and its analogs in 786-0 cells, all determinations were done in triplicate. The LD50 of each compound and the standard deviation (S.D.) were calculated with a Prism log (inhibitor) versus normalized response (variable slope) curve fit (Prism, GraphPad Software Inc., San Diego, Calif.).

[3] = as above; assay type: cell-based, human; settings: human, 786-o cells, dividing 786-O cells, 72 hours; read-out: LD50
Experimental: as §1, §3

Human GGT1 (hGGT) [4] = biological target: T1, Human GGT1 (hGGT); assay: D-GpNA Hydrolysis Assay (release of pNA, 405 nm, pH 7.4)
Experimental: (§4) Enzyme Isolation: Human GGT1 (P19440), lacking the transmembrane domain, was expressed in Pichia pastoris and isolated as previously described (14). […] One unit of GGT activity was defined as the amount of enzyme that released 1 μmol of paranitroaniline/min at 37° C. at pH 7.4 in the transpeptidation reaction.
The reaction was initiated with the addition of 19 mU GGT. The reaction was incubated at 37° C. and monitored continuously at 405 nm by a Bio-Rad model 680 microplate reader with Microplate Manager 5.2 software (Bio-Rad, Hercules, Calif.).
Data Analysis: Samples in each experiment were run in triplicate. Each inhibitor was evaluated in two or more independent experiments. Double reciprocal plots were generated to assess data quality and determine the correct rate equation for data fitting. Data were fitted using the proper rate equation and the Marquardt-Levenberg algorithm supplied with the Enzfitter program (BIOSOFT, Cambridge, UK). Kinetic parameters with standard errors were estimated using a simple weighting method.
Data adhering to Michaelis-Menten Kinetics were fitted to eq. 1. Data for initial rate patterns with D-, L-GpNA varied at different fixed levels of glygly were fitted to eq. […] Data for competitive and uncompetitive inhibition were fitted to eqs. 3 and 4. Data for the dependence of Vmax and Vmax/KD-GpNA on the concentration of activator were fitted using eq. 5 (25).
In eqs 1-6, Vmax are the initial and maximum rates, respectively, Ka and Kb are Michaelis constants for substrates A and B, respectively, and Kis and Kii are slope and intercept inhibition constants. In eq. 5, a is the value of Vmax or Vmax/KD-GpNA at zero activator/inhibitor, KID is the activation or inhibition constant, and KIN is a constant that causes the parameter to go to a constant value at infinite concentrations of X, the activator/inhibitor. The product a(KID/KIN) is the value of Vmax or Vmax/KD-GpNA at infinite activator/inhibitor (25). Data for noncompetitive inhibition were fitted to eq. 6. Data for the dependence of Vmax and Vmax/KD-GpNA on the concentration of activator were fitted using […].
as §4, with “hGGT” for “Human GGT1”, “described.” for “described (14).”, “reaction with L-GpNA.” for “reaction.”
D-GpNA Hydrolysis Assay: The assay was carried out as previously described. […] The reaction was initiated with the addition of 19 mU GGT as determined by the L-GpNA transpeptidation assay. The reaction was incubated at 37° C. and monitored continuously at 405 nm.

[5] = system: hGGT expressed on the surface of 786-0 cells; assay: Catabolism of extracellular GSH by 786-O cells; assay type: cell-based, human; settings: 100 μM Compound 6, 20 μM GSH, one hour; 60 min
Experimental: as §1, §2

T1 sequence (P19440 381-569 limits assumed): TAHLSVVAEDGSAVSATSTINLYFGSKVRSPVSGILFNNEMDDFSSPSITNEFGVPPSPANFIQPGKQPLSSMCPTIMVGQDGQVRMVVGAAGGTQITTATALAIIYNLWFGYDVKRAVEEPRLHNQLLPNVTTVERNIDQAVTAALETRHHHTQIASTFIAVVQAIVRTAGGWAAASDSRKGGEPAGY
T1 sequence (P19440 27-380 limits assumed): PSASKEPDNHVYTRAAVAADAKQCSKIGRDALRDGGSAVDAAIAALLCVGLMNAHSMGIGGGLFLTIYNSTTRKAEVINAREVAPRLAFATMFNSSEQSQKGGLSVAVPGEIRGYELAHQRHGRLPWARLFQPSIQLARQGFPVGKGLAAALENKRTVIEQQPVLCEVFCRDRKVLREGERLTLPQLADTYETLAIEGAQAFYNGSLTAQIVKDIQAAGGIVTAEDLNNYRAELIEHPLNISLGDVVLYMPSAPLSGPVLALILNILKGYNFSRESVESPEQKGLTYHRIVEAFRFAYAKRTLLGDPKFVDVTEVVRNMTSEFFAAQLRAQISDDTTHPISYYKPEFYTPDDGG
T2 sequence (P19440 381-569 limits assumed): as the sequence (P19440 381-569 limits assumed) above
T2 sequence (P19440 27-380 limits assumed): as the sequence (P19440 27-380 limits assumed) above

In the case of `COc1ccc(Cc2nnc(NS(=O)(=O)c3cccc4ccccc34)s2)cc1` [Compound 6], the Ki (Human GGT1 (hGGT) [1]; GlyGly varied, 3 mM L-GpNA, read-out: Transpeptidation GlyGly Kis) is reported as 45.7 ± 3.4 µM, the Ki (Human GGT1 (hGGT) [1]; L-GpNA varied, 40 mM GlyGly, read-out: Transpeptidation L-GpNA Kii) is reported as 74.9 ± 3.6 µM and the “reduction of GSH metabolism in the media” value [2] is reported as 59%. For the same molecule, the Ki (hGGT; GSH hydrolysis, Table 6, read-out: GSH Kii) was 96 ± 2 µM, the “fold more potent than OU749 in inhibiting GSH hydrolysis” value (hGGT; relative to OU749) was 4 fold and the “fold less toxic (cytotoxic) than OU749” value (786-0 cells; LD50 ratio, 786-O cells) was “more than 16 fold”. It also gave a CC50 (786-0 cells; dividing 786-O cells, 72 hours, 4320 min, read-out: LD50 (the source's name)) of 2090 ± 20 µM, a CC50 at 72 h [3] of about 2100 µM and a Ki (Human GGT1 (hGGT) [4]; read-out: Hydrolysis D-GpNA Kii, D-GpNA substrate, Table 2) of 161 ± 4.5 µM. For the same molecule, the “fold less effective than OU749 in inhibiting hydrolysis of D-GpNA” value (Human GGT1 (hGGT) [4]; relative to OU749) was 2-5 fold and the “block of hGGT catabolism of extracellular GSH” value [5] was 51%.
